Assay results as given in PMC5462101 (Future medicinal chemistry, 2015).

Experiments:
[1] = Inhibition of linoleic acid peroxidation (AAPH); conditions: linoleic acid peroxidation initiated by AAPH, 37 °C, pH 7.4
Excerpt: Azo compounds that generate free radicals through spontaneous thermal decomposition are useful for in vitro studies of free radical production. The water-soluble AAPH has been extensively used as a clean and controllable source of thermally produced alkylperoxyl free radicals. […] Evidently, the presence of 6,7-dimethyl groups on the pteridine ring greatly enhances protection against lipid peroxidation; the nature of the alkyl group and ring size on the 2-substituent has some, but much less, effect. […] The role of lipophilicity (as assessed from calculated clogP values; Table 1) is not clear, but substituent bulk plays a significant role.
Inhibition of linoleic acid peroxidation
Production of conjugated diene hydroperoxide by oxidation of linoleic acid in an aqueous dispersion was monitored at 234 nm. 2,2’-Azobis(2-amidinopropane) dihydrochloride (AAPH) was used as a free radical initiator. This assay was used to follow oxidative changes and to determine the inhibition of the peroxidation of sodium linoleate by each tested compound. A dispersion of sodium linoleate (16 mM, 10 μL) was added to the UV cuvette containing phosphate buffer (0.05 M, 0.93 mL) at pH 7.4 and kept in a thermostat at 37 °C. The oxidation reaction was initiated at 37 °C under air by the addition of AAPH solution (40 mM, 50 μL). Oxidation was carried out in the presence of aliquots (10 μL) of the tested compound. In the assay without antioxidant, lipid oxidation was measured in the presence of DMSO (10 μL). The rate of oxidation at 37 °C was monitored by recording the increase in absorption at 234 nm caused by conjugated diene hydroperoxide formation (Table 2).
(§1) IC50 determinations. OriginPro 8 was used to determine IC50 values from the sigmoidal line fitted to a graph of log[concentration] against the average percentage inhibition from two independent experiments, with at least 6 different concentrations. The SEM is the calculated standard error in the IC50 value of the fitted line.

soybean lipoxygenase = target: T1, soybean lipoxygenase (Glycine max, UniProt P08170); test: Inhibition of soybean lipoxygenase; assay type: biochemical; conditions: sodium linoleate 0.1 mM, read-out: Lipoxygenase inhibitory activity (IC50)
T1 construct: purchased Sigma
T1 sequence (P08170 1-839): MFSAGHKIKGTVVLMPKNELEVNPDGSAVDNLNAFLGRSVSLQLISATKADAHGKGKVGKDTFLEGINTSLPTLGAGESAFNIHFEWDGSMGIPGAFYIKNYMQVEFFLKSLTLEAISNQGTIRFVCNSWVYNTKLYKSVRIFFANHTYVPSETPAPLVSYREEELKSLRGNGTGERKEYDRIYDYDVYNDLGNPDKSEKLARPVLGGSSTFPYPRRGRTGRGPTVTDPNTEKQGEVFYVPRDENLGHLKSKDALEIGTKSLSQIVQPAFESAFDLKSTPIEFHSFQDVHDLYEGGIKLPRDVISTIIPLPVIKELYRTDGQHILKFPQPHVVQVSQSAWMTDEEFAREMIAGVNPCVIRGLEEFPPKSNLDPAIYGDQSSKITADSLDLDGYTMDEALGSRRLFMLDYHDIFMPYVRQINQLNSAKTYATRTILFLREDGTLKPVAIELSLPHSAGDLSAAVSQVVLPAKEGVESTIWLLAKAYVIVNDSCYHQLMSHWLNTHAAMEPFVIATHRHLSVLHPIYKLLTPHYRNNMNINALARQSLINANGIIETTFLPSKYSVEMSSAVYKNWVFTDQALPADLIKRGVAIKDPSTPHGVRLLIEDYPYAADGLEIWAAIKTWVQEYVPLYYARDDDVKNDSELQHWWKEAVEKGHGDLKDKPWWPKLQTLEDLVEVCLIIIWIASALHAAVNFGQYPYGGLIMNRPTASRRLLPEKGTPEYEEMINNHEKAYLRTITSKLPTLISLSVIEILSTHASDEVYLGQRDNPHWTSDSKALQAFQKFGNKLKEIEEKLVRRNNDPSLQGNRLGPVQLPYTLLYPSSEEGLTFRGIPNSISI
Method: The substituted pteridines prepared were assayed for inhibition of soybean lipoxygenase (Table 1) (Supplementary Information). Many studies have used readily obtainable soybean lipoxygenase, which is a homologue of mammalian lipoxygenase and well examined. The availability of soybean LOX and its well-characterized crystal structure led to its use in this study.
Determination of soybean lipoxygenase inhibition
A solution in DMSO of each compound to be tested was incubated at room temperature with sodium linoleate (0.1 mM) and a solution of soybean lipoxygenase (EC 1.13.11.12) (1:9 x 10^4 w/v in saline, 0.2 mL, Sigma). The conversion of sodium linoleate to 13-hydroperoxylinoleic acid was monitored by observation at 234 nm and compared with the value of appropriate standard inhibitor (Table 1).
as §1

IC50 [1]: 100 ± 1.5 µM
IC50 (soybean lipoxygenase): 55 ± 0.8 µM
SMILES: CN1CCN(c2nc(NCc3cccs3)c3nccnc3n2)CC1 [Compound 18f, 2-(4-methylpiperazin-1-yl)-N-(thiophen-2-ylmethyl)pteridin-4-amine]
